Laboratory results taken from patent US10357533B2, “Drug for the effective control of acute and or chronic pain and a method for its administration” (PVP LABS PTE. LTD., priority 2016, dated 2019).
Read-outs that look alike come from different tables or passages of the source. [ ]: non-standard residue; d: D form. Sar = CNCC(=O)O

Tests used:
rats = test: Hot plate test in rats; type: in vivo; conditions: for HPL, s (Mean ± SEM): hot plate 52° C.
Protocol: The “Hot Plate” test is based on the reflex that rat licking its' feet when the animal comes in contact with a hot surface. The device is a metal surface with a diameter of 30 cm whose temperature is controlled by software. The site is enclosed by a transparent fence with a height of 40 cm. The temperature of the metal pad was set at exactly 52° C. When placing the animal on the surface, you measure the time until the moment when the animal licks its' foot. When analgesics are administered, the time before the rat licks its' feet increases. The licking latency (HPL) of 40 seconds was used as the maximum allowable time of stimulation. The study was conducted on male rats weighing 160-180 g, 6 animals per dose.

mice [1] = test: Open field test and toxicity of high doses in mice; type: in vivo; conditions: open field, 20 EC50 doses (120 mg/kg)
Protocol: Testing of the influence of the injectable substance based on tetrapeptide (as in example 2) H-Tyr-D-Arg-Phe-Gly-NH2 on the behavior of animals, was provided in the study of the toxicity of high doses of the “open field” test and maintaining balance on a horizontal rod.
The aim of the experiment was to identify an effective dose of the substance that affects the behavior of the animals. It was tested on several animals after administration of different doses of peptide compound.
The experimental and control groups of male mice were taken from the same batch, about the same weight (22-24 g).
The substance was injected intraperitoneally in identical weight amounts to laboratory animals in the experimental and control groups, respectively. […] The measurement was started 15 minutes after injection.
Several groups were organized: without the introduction of the substance, and with the introduction of a solution of morphine or peptide. After 15 from injection we conducted measurement in the following order:
Each animal tested was introduced into a round, not brightly lit arena. The surface is divided into square blocks of 10 cm each. We count locomotor activity of the mouse when it crossed the square. The movement of the mouse in the center of the arena and on the periphery, are recorded separately. We registered the number of times the mouse stands on its hind legs “stand” and the number of times the mouse looks into a “burrow”—ie. holes in the floor. Observations were done visually and were simultaneously entered into a computer using a keyboard (semi-automatic registration).

mice [2] = conditions: published data, cited from earlier work
mice [3] = test: Acetic acid-induced writhing test in mice; type: in vivo; conditions: for Number of writhings, n (Mean ± SEM): 15 minutes count
Protocol: The acetic acid-induced writhing test is a model of a chemical nociceptive stimulus applied by the intraperitoneal injection of acetic acid solution.
Intraperitoneal injection of substances that irritate serous membranes in mice induces distinctive movements, including contractions of abdominal muscles followed by muscle relaxation, extension of the hind limbs and curving of the back, known as writhing. Mice were given an intraperitoneal injection of 1% acetic acid at a dose of 0.1 mL per 10 g body weight. After the injection the mice were placed in transparent acrylic chambers and counted the number of writhings in each animal for the next 15 minutes. The analgesic effect was evaluated by a reduction in the number of writhings in mice that received the study drug relative to the control group. […] Writhing onset latency in mice was used as an additional parameter for evaluating the efficacy of the substance in the acetic acid-induced writhing test.

[4] = target: opioid μ-receptors located on GPI (Cavia porcellus, UniProt A0ACM8Q262); test: Inhibition of electrically stimulated contractions of isolated guinea pig ileum (GPI); type: cell-based; set-up: amplitude: unit not given here
Chain of opioid μ-receptors located on GPI (A0ACM8Q262 1-400): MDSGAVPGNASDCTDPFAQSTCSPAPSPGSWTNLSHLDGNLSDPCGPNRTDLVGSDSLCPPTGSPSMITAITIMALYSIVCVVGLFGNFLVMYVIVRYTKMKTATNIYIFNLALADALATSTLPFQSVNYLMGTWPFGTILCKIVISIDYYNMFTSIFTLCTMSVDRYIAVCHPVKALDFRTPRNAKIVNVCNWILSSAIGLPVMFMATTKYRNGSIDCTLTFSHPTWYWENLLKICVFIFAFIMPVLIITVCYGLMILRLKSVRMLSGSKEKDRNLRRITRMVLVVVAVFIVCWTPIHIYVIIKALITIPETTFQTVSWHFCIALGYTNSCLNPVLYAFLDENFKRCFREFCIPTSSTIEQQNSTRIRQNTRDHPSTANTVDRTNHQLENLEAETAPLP
Protocol: Effect was assessed by ability to inhibit the contraction caused by electrical stimulation of isolated organs—guinea pig ileum (GPI). Work was carried out on a special apparatus for testing substances for opioid activity on the model of guinea pig ileum. GPI, taken from nonlinear animals were placed in a 10 ml volumetric flask with electrodes inserted containing Krebs solution at 34° C. in a water bath (HOECHST Organbad, Germany) with a thermostat for maintaining a constant temperature in the working cell. The lower end of the GPI is fixed to the vessel at the bottom. The upper end of the ligature was attached to the sensor strength registration device (sensors isometric registration K-30, “Hugo Sachs Elektronik KG”, Germany). The initial tension of the organs was 1 gram. The solution with placed in GPI was being constantly aerated. GPI segments were equilibrated in the Krebs solution for one hour.
GPI contractions were stimulated by plate electrodes with electrical impulses in a series of four rectangular pulses each lasting 0.5 ms and with 1.5 ms intervals, with delays at 7.5 sec. between the series and voltage 80V using a generator of electric impulses (type 215/I, Hugo Sachs Elektronik, Germany). Registration was performed in isometric contraction mode using K30 sensors via two channel amplifiers MS 6601 (“Watanabe”, Japan).
At the beginning stimulation was applied for a minimum of 45 minutes, which allowed reproducible responses to be established.
The tested substance was administered in a solution bathing the organs in a volume of 0.005 to 0.015 ml, to final concentrations of 1×10^−9-1×10^−6 M. Each subsequent introduction of the substance was done 1 minute after the previous dose without washing the organs, on a cumulative basis. […] Active substances were expressed on an indicator pD2 (numerically equal to the negative decimal logarithm of the concentration of a substance that causes 50% of the maximum effect). In other words, the potency of the opioid receptor agonists in the absence and presence of the antagonist was assessed as the negative logarithm of the concentration required to cause 50% of the maximum response (pD2) using the logistic equation described by DeLean A. et al.
During the experiment, the change in GPI amplitude contractions was taken into account and was fixed. Parallel monitoring in 4 chambers with GPI segments for each substance was used.

mice [5] = conditions: subcutaneously to mice, acute pain, ringer solution; application JPS6054400; cited from earlier work

Compound	amplitude ([4]; concentration 1.0E−09 M)	inhibit. effect ([4]; concentration 1.0E−09 M)	amplitude ([4]; concentration 1.4E−06 M)	inhibit. effect ([4]; concentration 1.4E−06 M)	amplitude ([4]; concentration 1.4E−07 M)	inhibit. effect ([4]; concentration 1.4E−07 M)	amplitude ([4]; concentration 1.4E−08 M)	inhibit. effect ([4]; concentration 1.4E−08 M)	amplitude ([4]; concentration 4.0E−09 M)	inhibit. effect ([4]; concentration 4.0E−09 M)	amplitude ([4]; concentration 4.4E−07 M)	inhibit. effect ([4]; concentration 4.4E−07 M)	amplitude ([4]; concentration 4.4E−08 M)	inhibit. effect ([4]; concentration 4.4E−08 M)	other results
CN1CC[C@]23c4c5ccc(O)c4O[C@H]2[C@@H](O)C=C[C@H]3[C@H]1C5 [Morphine, reference compound]															Proportion of the maximum possible effect (MPE), % (rats; 5 mg/kg subcutaneous): 68.6%; HPL, s (Mean ± SEM) (rats; 5 mg/kg subcutaneous): 27.45 ± 4.4 s; Proportion of the maximum possible effect (MPE), % (rats; 15 mg/kg subcutaneous): 95.7%; HPL, s (Mean ± SEM) (rats; 15 mg/kg subcutaneous): 38.31 ± 2.63 s; physical activity reduced (mice [1]): 50-70%; antinociceptive activity, % of MPE (mice [2]; dosage 7 mg/kg): 50%; antinociceptive activity, % of MPE (mice [2]; dosage 10 mg/kg): 75%; antinociceptive activity, % of MPE (mice [2]; dosage 20 mg/kg): 95%; % of mice w/o writhing (mice [3]; 1 mg/kg subcutaneous): 14.3%; Number of mice w/o writhing/number of mice in group (mice [3]; 1 mg/kg subcutaneous): 1/7; Writhing onset latency, s (Mean ± SEM) (mice [3]; 1 mg/kg subcutaneous): 467.1 ± 74.41 s; Number of writhings, n (Mean ± SEM) (mice [3]; 1 mg/kg subcutaneous 40 minutes before acetic acid): 12.4 ± 3.73 n; % of mice w/o writhing (mice [3]; 3 mg/kg subcutaneous): 37.5%; Number of mice w/o writhing/number of mice in group (mice [3]; 3 mg/kg subcutaneous): 3/8; Writhing onset latency, s (Mean ± SEM) (mice [3]; 3 mg/kg subcutaneous): 695.0 ± 85.00 s; Number of writhings, n (Mean ± SEM) (mice [3]; 3 mg/kg subcutaneous 40 minutes before acetic acid): 2.1 ± 0.83 n
H-Y[dR]F[Sar]-OH [TP2]	38.2	0.0%	8.6	77.5%	22.0	42.4%	35.3	7.6%	38.2	0.0%	15.2	60.2%	29.7	22.2%	
H-Y[dR]FG-NH2 [TP1]	38.7	0.0%	9.3	76.6%	23.0	41.1%	36.0	7.0%	38.7	0.0%	15.7	61.1%	30.3	22.9%	analgesic action, times the activity of morphine (mice [5]): more than 6 times
